Assay results reported in US12246007B2, “Liquid bendamustine pharmaceutical compositions” (HOSPIRA AUSTRALIA PTY LTD, priority 2018, dated 2025).
Counter-ions that a name gives are not always drawn. Like-named read-outs stand apart in the source and are kept apart here.

Experiment: Solubility of bendamustine HCl in organic solvents (T0 assay after overnight rolling and filtration)
Format: physicochemical
Procedure: An initial study was performed to assess bendamustine HCl solubility and brief stability in various organic solvents. Amounts of approximately 415.4 mg bendamustine HCl API (active pharmaceutical ingredient) were weighed into 4 mL amber glass vials. 2 mL of each indicated test solvent was added to two of each of the vials. One of each set of two vials containing the same solvent was placed on a sample roller at 2-8° C., and the other vial in each set was placed on a sample roller at laboratory temperature overnight. The following day, the solution from each vial was filtered through a Pall, 0.2 μm Fluorodyne II (Hydrophilic modified PVDF) syringe filter into a fresh 4 mL amber glass vial.

## Cn1c(CCCC(=O)O)nc2cc(N(CCCl)CCCl)ccc21 [Bendamustine HCl, 1H-benzimidazole-2-butanoic acid, 5-[bis(2-chloroethyl)amino]-1-methyl, monohydrochloride]
2 °C, organic solvent or mixture, thermodynamic from solid, 1-methyl-2-pyrrolidinone, 2-8° C., read-out: Solubility
  solubility: 181 mg/mL
2 °C, organic solvent or mixture, thermodynamic from solid, Absolute Ethanol, 2-8° C., read-out: Solubility
  solubility: 52.1 mg/mL
2 °C, organic solvent or mixture, thermodynamic from solid, Benzyl alcohol, 2-8° C., read-out: Solubility
  solubility: 177 mg/mL
2 °C, organic solvent or mixture, thermodynamic from solid, Dimethyl acetamide (EP)-Finar, 2-8° C., read-out: Solubility
  solubility: 180 mg/mL
2 °C, organic solvent or mixture, thermodynamic from solid, Dimethyl acetamide (EP)-Panreac, 2-8° C., read-out: Solubility
  solubility: 182 mg/mL
2 °C, organic solvent or mixture, thermodynamic from solid, Dimethyl acetamide (high purity)-Finar, 2-8° C., read-out: Solubility
  solubility: 178 mg/mL
2 °C, organic solvent or mixture, thermodynamic from solid, Dimethyl sulfoxide, 2-8° C., read-out: Solubility
  solubility: 182 mg/mL
2 °C, organic solvent or mixture, thermodynamic from solid, PEG 300, 2-8° C., read-out: Solubility
  solubility: 60.2 mg/mL
2 °C, organic solvent or mixture, thermodynamic from solid, PEG 400, 2-8° C., read-out: Solubility
  solubility: 32.8 mg/mL
2 °C, organic solvent or mixture, thermodynamic from solid, Propylene glycol (USP)-Croda, 2-8° C., read-out: Solubility
  solubility: 154 mg/mL
2 °C, organic solvent or mixture, thermodynamic from solid, Propylene glycol (USP)-Dow, 2-8° C., read-out: Solubility
  solubility: 154 mg/mL
2 °C, organic solvent or mixture, thermodynamic from solid, Propylene glycol (USP)-Merck, 2-8° C., read-out: Solubility
  solubility: 159 mg/mL
2 °C, organic solvent or mixture, thermodynamic from solid, Propylene glycol, 2-8° C., read-out: bendamustine HCl solubility
  solubility: ~155 mg/mL
Isopropyl alcohol, 2-8° C.
  solubility: 4.5 mg/mL
PEG 300, organic solvent or mixture, thermodynamic from solid, read-out: bendamustine HCl solubility
  solubility: ~60 mg/mL
PEG 400, organic solvent or mixture, thermodynamic from solid, read-out: bendamustine HCl solubility
  solubility: ~30 mg/mL
Propylene glycol (USP)-Croda, 23° C.
  solubility: 170.3 mg/mL
ethanol, organic solvent or mixture, thermodynamic from solid, read-out: bendamustine HCl solubility
  solubility: 50 to 60 mg/mL
Isopropyl alcohol, organic solvent or mixture, thermodynamic from solid, read-out: bendamustine HCl solubility
  solubility: ~5 mg/mL
Organic solvent or mixture, thermodynamic from solid, 1-methyl-2-pyrrolidinone, 23° C., read-out: Solubility
  solubility: 180 mg/mL
Organic solvent or mixture, thermodynamic from solid, 1-methyl-2-pyrrolidinone, both temperatures tested, API completely dissolved, read-out: bendamustine HCl solubility
  solubility: > 180 mg/mL
Organic solvent or mixture, thermodynamic from solid, Absolute Ethanol, 23° C., read-out: Solubility
  solubility: 61.1 mg/mL
Organic solvent or mixture, thermodynamic from solid, Benzyl alcohol, 23° C., read-out: Solubility
  solubility: 174 mg/mL
Organic solvent or mixture, thermodynamic from solid, Benzyl alcohol, both temperatures tested, API completely dissolved, read-out: bendamustine HCl solubility
  solubility: > 180 mg/mL
Organic solvent or mixture, thermodynamic from solid, Dimethyl acetamide (EP)-Finar, 23° C., read-out: Solubility
  solubility: 174 mg/mL
Organic solvent or mixture, thermodynamic from solid, Dimethyl acetamide (EP)-Panreac, 23° C., read-out: Solubility
  solubility: 180 mg/mL
Organic solvent or mixture, thermodynamic from solid, Dimethyl acetamide (high purity)-Finar, 23° C., read-out: Solubility
  solubility: 179 mg/mL
Organic solvent or mixture, thermodynamic from solid, Dimethyl sulfoxide, 23° C., read-out: Solubility
  solubility: 181 mg/mL
Organic solvent or mixture, thermodynamic from solid, Isopropyl alcohol, 23° C., read-out: Solubility
  solubility: 6.7 mg/mL
Organic solvent or mixture, thermodynamic from solid, PEG 300, 23° C., read-out: Solubility
  solubility: 64.5 mg/mL
Organic solvent or mixture, thermodynamic from solid, PEG 400, 23° C., read-out: Solubility
  solubility: 34.4 mg/mL
Organic solvent or mixture, thermodynamic from solid, Propylene glycol (USP)-Dow, 23° C., read-out: Solubility
  solubility: 166 mg/mL
Organic solvent or mixture, thermodynamic from solid, Propylene glycol (USP)-Merck, 23° C., read-out: Solubility
  solubility: 172 mg/mL
Organic solvent or mixture, thermodynamic from solid, Propylene glycol, 23° C., read-out: bendamustine HCl solubility
  solubility: ~170 mg/mL
Organic solvent or mixture, thermodynamic from solid, dimethyl acetamide, both temperatures tested, API completely dissolved, read-out: bendamustine HCl solubility
  solubility: > 180 mg/mL
Organic solvent or mixture, thermodynamic from solid, dimethyl sulfoxide, both temperatures tested, API completely dissolved, read-out: bendamustine HCl solubility
  solubility: > 180 mg/mL
